Source: EP1222183B1, “BENZOPYRAN DERIVATIVES” (priority 1999, dated 2001)

Key:
[1] = test system: diastolic blood pressure; experiment: Effect on diastolic blood pressure in anaesthetised dogs after i.v. administration; type: in vivo; details: dog, dose lowering diastolic blood pressure by 25%
Procedure: (§1) The experiments were performed according to the method of Imagawa J. et al., J. Pharmacol. Methods 22, 103-111, 1989, with substantial modifications, as follows: adult male beagle dogs, weighing 8-10 kg, were anaesthetised with pentobarbital sodium (30 mg/kg i.v. and 2 mg/kg/h i.v.), intubated and spontaneously ventilated with room air. In order to monitor systemic blood pressure (BP), a polyethylene (PE) catheter was introduced into the aortic arch through the left femoral artery. A collateral of the left femoral vein was cannulated for infusion of anaesthetic, and the right femoral vein was cannulated for administration of compounds. For intra-arterial (i.a.) injection of noradrenaline (NA), a PE catheter was introduced into the lower portion of the abdominal aorta via the right external iliac artery. Through such procedure, NA was selectively distributed to the lower urinary tract. A paramedian vertical suprapubic incision extending from the base of the pelvis to the mid-abdominal region was made and the bladder and prostate were exposed. The bladder was manually emptied with a syringe. Prostatic urethral pressure was monitored with a Mikro-tip catheter (5F) introduced into the bladder via the external urethral meatus, and withdrawn until the pressure transducer was positioned in the prostatic region of the urethra. A ligature was secured between the neck of the bladder and urethra to isolate the response of the latter and to avoid any interaction with the bladder. Another ligature was put around the Mikro-tip catheter at the external meatus, to secure the catheter itself. After a stabilising period following the surgical procedure (30 minutes), in which arterial and prostatic urethral pressure were continuously monitored as basal values, i.a. administration of NA was made at intervals of 20 minutes. The doses of NA chosen were such to produce an increase of at least 100% in urethral pressure. The test compounds were administered i.v. in a cumulative manner with intervals of 15-20 minutes between administrations. I.a. injections of NA were repeated 5 minutes after every dosing of test compound with intervals of about 10 minutes between stimulations. In order to compare the effects of the administered compound, dose/response curves (log dose transformation) were constructed by computing, at the peak effect, the percent decrease in diastolic blood pressure and the percent inhibition of the increase in urethral pressure induced by NA.

[2] = test system: prostatic urethral pressure; experiment: Inhibition of urethral contractions induced by noradrenaline injection in anaesthetised dogs after i.v. administration; type: in vivo; details: dog; for ED50: Canis lupus familiaris, iv, dose inhibiting by 50% the urethral contractions induced by noradrenaline, read-out: UC ID50; for DBP/UC: ratio between the active doses (DBP ED25 / UC ID50)
Procedure: as §1, with “cathe[…])” for “catheter (5F)”, “After a stabilising period following the surgical procedure (30 minutes), in which arterial and prostatic urethral pressure were continuously monitored as basal values, i.a. administration of NA was made at intervals of 20 minutes. The doses of NA chosen were such to produce an increase of at least 100% in urethral pressure. The test compounds were administered i.v. in a cumulative manner with intervals of 15-20 minutes between administrations. I.a. injections of NA were repeated 5 minutes after every dosing of test compound with intervals of about 10 minutes between stimulations.” left out

[3] = test system: prostatic urethral pressure; details: dog, i.v., dose inhibiting by 50% the urethral contractions induced by noradrenaline; data from Leonardi A. et al. 1997; cited from earlier work
[4] = target: T1, human 5-HT1A-serotoninergic receptor (Homo sapiens, UniProt P08908); experiment: Radioligand binding ([3H]8-OH-DPAT) to cloned 5-HT1A receptor in HeLa cell membranes; details: cloned human receptor in HeLa cells, 1.2 nM [3H]8-OH-DPAT, 30 minutes at 30°C; read-out: Affinity (Ki) 5-HT1A
T1 construct: expressed in transfected cells; host or cells: HeLa (human), stably transfected
T1 sequence (P08908 1-422): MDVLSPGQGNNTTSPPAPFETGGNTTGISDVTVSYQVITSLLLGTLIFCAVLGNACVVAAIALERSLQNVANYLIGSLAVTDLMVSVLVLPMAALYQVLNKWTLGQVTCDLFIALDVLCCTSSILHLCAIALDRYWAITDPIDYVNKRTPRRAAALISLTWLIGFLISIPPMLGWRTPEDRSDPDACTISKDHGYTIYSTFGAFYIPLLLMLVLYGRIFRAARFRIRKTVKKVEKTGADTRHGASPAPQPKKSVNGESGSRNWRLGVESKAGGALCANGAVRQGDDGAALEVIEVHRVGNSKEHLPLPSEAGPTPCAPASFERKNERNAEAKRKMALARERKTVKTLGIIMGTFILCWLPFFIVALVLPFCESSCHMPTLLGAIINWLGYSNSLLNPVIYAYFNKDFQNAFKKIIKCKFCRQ

| SMILES | DBP ED25 [1] [mg/kg] | ED50 [2] [mg/kg] | DBP/UC [2] | UC ID50 [3] [mg/kg] | Ki [4] [nM] |
| --- | --- | --- | --- | --- | --- |
| COc1ccc(C#N)cc1N1CCN(CCCNC(=O)c2cccc3c(=O)c(C)c(-c4ccccc4)oc23)CC1 [Example 18, 8-{3-[4-(5-Cyano-2-methoxyphenyl)-1-piperazinyl]-propylcarbamoyl}-3-methyl-4-oxo-2-phenyl-4H-1-benzopyran] | 1.2976 | 0.0341 | 38.05 |  |  |
| Cc1c(-c2ccccc2)oc2c(C(=O)NCCCN3CCN(c4ccccc4OCC(F)(F)F)CC3)cccc2c1=O [Example 15, 8-<3-{4-[2-(2,2,2-Trifluoroethoxy)-phenyl]-1-piperazinyl}propylcarbamoyl>-3-methyl-4-oxo-2-phenyl-4H-1-benzopyran] | 3.001 | 0.0049 | 612 |  |  |
| CCOC(=O)c1oc2c(C(=O)NCCCN3CCN(c4cc(Cl)ccc4OC)CC3)cccc2c(=O)c1C [Example 4, 2-Ethoxycarbonyl-8-{3-[4-(5-chloro-2-methoxyphenyl)-1-piperazinyl]-propylcarbamoyl}-3-methyl-4-oxo-4H-1-benzopyran] | 0.1633 | 0.0023 | 71.0 |  |  |
| COc1cc2nc(N3CCN(C(=O)C4CCCO4)CC3)nc(N)c2cc1OC (centres unmarked) [Terazosin, terazosin] |  |  |  | 0.0206 |  |
| Cc1c(-c2ccccc2)oc2c(C(=O)NCCCN3CCN(c4cc(Cl)ccc4OCC(F)(F)F)CC3)cccc2c1=O [Example 22, 8-<3-{4-[5-Chloro-2-(2,2,2-trifluoroethoxy)-phenyl]-1-piperazinyl}-propylcarbamoyl>-3-methyl-4-oxo-2-phenyl-4H-1-benzopyran] | 1.266 | 0.0195 | 64.92 |  |  |
| COc1ccc(OCC(F)(F)F)cc1N1CCN(CCCNC(=O)c2cccc3c(=O)c(C)c(C(N)=O)oc23)CC1 [Example 9, 2-Carbamoyl-8-<3-{4-[2-methoxy-5-(2,2,2-trifluoroethoxy)-phenyl]-1-piperazinyl}-propylcarbamoyl>-3-methyl-4-oxo-4H-1-benzopyran] |  |  |  |  | > 1000 |
| COc1ccc(Cl)cc1N1CCN(CCCNC(=O)c2cccc3c(=O)c(C)c(C(N)=O)oc23)CC1 [Example 1, 2-Carbamoyl-8-{3-[4-(5-chloro-2-methoxyphenyl)-1-piperazinyl]-propylcarbamoyl}-3-methyl-4-oxo-4H-1-benzopyran] | 2.769 | 0.0118 | 234.7 |  |  |
